# Test results as given in US4254128A, “2-Adamantyl hydrazines and biocidal compositions thereof” (Teva Pharmaceutical Industries Ltd., priority 1977, dated 1981).
# Counter-ions that a name gives are not always drawn.
# Legend:
# [1] = test system: 4 mycoplasma (M. gallisepticum, M. capricolum, M. hominis, A. laidlawii); assay: organism not typed; format: cell-based; conditions: read-out: 50% inhibition of growth
# [2] = test system: Leptospira canicola Kipod 146; assay: Anti leptospiral activity (minimal inhibition concentration); format: cell-based; conditions: for MIC: Leptospira interrogans, KIPOD146, 240 h; for anti leptospiral activity: summary in words
# Procedure: The tests were carried out under the following conditions:
# Leptospira: Leptospira canicola Kipod 146
# Inoculum: 1-10^5 cells/ml
# Incubation time: 10 days, 28° C.
# Evaluation: Direct count in dark field microscopy after 4,7 and 10 days.
# 2 Minimal+0.5% albumin (Pentex)
# 3 Korthof rich medium with 8% serum.
# 4 Korthof rich medium with 2% serum.
# albino rats = assay: Antiparkinson activity (catalepsy produced by haloperidol); format: in vivo, Male Charles River albino rats; conditions: for antiparkinson activity: summary in words
# Procedure: Male Charles River albino rats, weighing 200-250 g, were used. Catalepsy was produced by haloperidol, 5 mg/kg i.p. The animals were placed with their front paws on a horizontal bar, about 10 cm above the ground, and animals were considered cataleptic if not changing posture for at least 30 sec. Cataleptic animals were injected i.p. with one of the drugs at a dose of 40-80 mg/kg. Catalepsy was estimated again at the intervals indicated.
# albino mice [3] = assay: Stereotyped behaviour in mice; format: in vivo, Male ICR albino mice; set-up: stereotyped behaviour score / Total Score / Mean Score: scale not given here; conditions: for stereotyped behaviour score / Mean Score / Total Score: 50 mg/kg i.p.; for Mean Score: mean of 4 mice; for stereotyped behaviour activity: summary in words
# Procedure: Male ICR albino mice weighing 25-30 g were put in cages with a metal grid floor, 4 in each cage. Drugs were injected intraperitoneally and stereotyped behaviour (sniffing, biting, repetitive head movement) was evaluated every 30 min.
# HSV-1 (Herpes Simplex) = assay: Inhibition test on HSV replication; format: cell-based; conditions: Human alphaherpesvirus 1, BSC-1 cells, 10 PFU/cell; for inhibition at 25 µg/mL: 25 μg/ml; for inhibition at 50 µg/mL: 50 μg/ml, read-out: % Inhibition; for inhibition at 100 µg/mL: 100 μg/ml
# Excerpt: BSC-1 (Green monkey kidney)
# **% Inhibition of control infected for some time with same virus PFV with […]
# albino mice [4] = assay: Stereotyped behaviour in mice; format: in vivo, Male ICR albino mice; set-up: scale not given here; conditions: 50 mg/kg i.p.
# [5] = Toxic limit in the HSV replication test; conditions: monkey, bsc-1 cells
# L. tropica promastigotes = assay: Anti leishmania test, promastigotes in vitro; format: cell-based; conditions: 27° C.
# Procedure: (§1) b. promastigotes in Mc Coy's medium in vitro at 27° C.
# +++=No viable parasites after 24 hours
# ++=No viable parasites after 48 hours
# +=No viable parasites after 72 hours
# ±=No viable parasites after 96 hours p2 -=viable parasites after 120 hours.
# Leishmania = assay: Anti leishmania tests, summary; format: cell-based, L. tropica; conditions: summary in words
# Procedure: (§2) a. amastigotes in peritoneal exudate cells in Mc Coy's medium in vitro at 37° C.
# as §1
# L. tropica amastigotes = assay: Anti leishmania test, amastigotes in peritoneal exudate cells in vitro; format: cell-based; conditions: 37° C.
# Procedure: as §2
# +++=clearance of all parasites in 24 hours
# ++=clearance of all parasites in 48 hours
# +=clearance of all parasites in 72 hours
# ±=Partial clearance of parasites in 72 hours or more
# -=No activity against parasites.
smiles,measurement,setting,value
"c1ccc(CCNNC2C3CC4CC(C3)CC2C4)cc1 (stereo not shown) [Example 2, 1-(2'-Adamantyl)-2-phenethylhydrazine hydrochloride]",IC50,[1],5 to 30 µg/mL
"C1CCN(NC2C3CC4CC(C3)CC2C4)CC1 (stereo not shown) [Example 10, 1-(2'-Adamantylamino)piperidine hydrochloride]",MIC,[2]; Korthof + 8% serum,100 µg/mL
same,MIC,[2]; minimal medium,12.5 µg/mL
same,anti leptospiral activity,[2],active
same,IC50,[1],5 to 30 µg/mL
same,Mean maximal effect,"albino rats; 80 mg/kg i.p., mean of 5 rats",1/4
same,anticataleptic effect,"albino rats; 80 mg/kg i.p., rat 1",0/4
same,anticataleptic effect,"albino rats; 80 mg/kg i.p., rat 2",1/4
same,anticataleptic effect,"albino rats; 80 mg/kg i.p., rat 3",0/4
same,anticataleptic effect,"albino rats; 80 mg/kg i.p., rat 4",1/4
same,anticataleptic effect,"albino rats; 80 mg/kg i.p., rat 5",3/4
same,antiparkinson activity,albino rats,active
same,stereotyped behaviour score,"albino mice [3]; 0 min, mouse 1",0
same,stereotyped behaviour score,"albino mice [3]; 0 min, mouse 2",0
same,stereotyped behaviour score,"albino mice [3]; 0 min, mouse 3",0
same,stereotyped behaviour score,"albino mice [3]; 0 min, mouse 4",0
same,stereotyped behaviour score,"albino mice [3]; 30 min, mouse 1",1
same,stereotyped behaviour score,"albino mice [3]; 30 min, mouse 2",1
same,stereotyped behaviour score,"albino mice [3]; 30 min, mouse 3",1
same,stereotyped behaviour score,"albino mice [3]; 30 min, mouse 4",1
same,stereotyped behaviour score,"albino mice [3]; 45 min, mouse 3",1
same,stereotyped behaviour score,"albino mice [3]; 45 min, mouse 4",0
same,stereotyped behaviour score,"albino mice [3]; 60 min, mouse 1",1
same,stereotyped behaviour score,"albino mice [3]; 60 min, mouse 2",1
same,stereotyped behaviour score,"albino mice [3]; 60 min, mouse 3",1
same,stereotyped behaviour score,"albino mice [3]; 60 min, mouse 4",1
same,stereotyped behaviour score,"albino mice [3]; 90 min, mouse 1",1
same,stereotyped behaviour score,"albino mice [3]; 90 min, mouse 2",1
same,stereotyped behaviour score,"albino mice [3]; 90 min, mouse 3",1
same,stereotyped behaviour score,"albino mice [3]; 90 min, mouse 4",1
same,stereotyped behaviour score,"albino mice [3]; 120 min, mouse 1",0
same,stereotyped behaviour score,"albino mice [3]; 120 min, mouse 2",0
same,stereotyped behaviour score,"albino mice [3]; 120 min, mouse 3",0
same,stereotyped behaviour score,"albino mice [3]; 120 min, mouse 4",0
same,stereotyped behaviour score,"albino mice [3]; 135 min, mouse 1",0
same,stereotyped behaviour score,"albino mice [3]; 135 min, mouse 2",0
same,stereotyped behaviour score,"albino mice [3]; 150 min, mouse 1",0
same,stereotyped behaviour score,"albino mice [3]; 150 min, mouse 2",0
same,stereotyped behaviour score,"albino mice [3]; 150 min, mouse 3",0
same,stereotyped behaviour score,"albino mice [3]; 150 min, mouse 4",0
same,stereotyped behaviour score,"albino mice [3]; 180 min, mouse 1",1
same,stereotyped behaviour score,"albino mice [3]; 180 min, mouse 2",1
same,stereotyped behaviour score,"albino mice [3]; 180 min, mouse 3",0
same,stereotyped behaviour score,"albino mice [3]; 180 min, mouse 4",0
same,stereotyped behaviour score,"albino mice [3]; 210 min, mouse 1",1
same,stereotyped behaviour score,"albino mice [3]; 210 min, mouse 2",0
same,stereotyped behaviour score,"albino mice [3]; 210 min, mouse 3",0
same,stereotyped behaviour score,"albino mice [3]; 210 min, mouse 4",0
same,stereotyped behaviour score,"albino mice [3]; 240 min, mouse 1",0
same,stereotyped behaviour score,"albino mice [3]; 240 min, mouse 2",0
same,stereotyped behaviour score,"albino mice [3]; 240 min, mouse 3",0
same,stereotyped behaviour score,"albino mice [3]; 240 min, mouse 4",0
same,Mean Score,albino mice [3],4.75
same,Total Score,albino mice [3]; mouse 1,6
same,Total Score,albino mice [3]; mouse 2,6
same,Total Score,albino mice [3]; mouse 3,4
same,Total Score,albino mice [3]; mouse 4,3
same,stereotyped behaviour activity,albino mice [3],active
same,inhibition at 10 µg/mL,HSV-1 (Herpes Simplex); 10 μg/ml,50%
same,inhibition at 25 µg/mL,HSV-1 (Herpes Simplex),40%
same,inhibition at 50 µg/mL,HSV-1 (Herpes Simplex),96%
same,stereotyped behaviour score,"albino mice [4]; 45 min, mouse 1",1
same,stereotyped behaviour score,"albino mice [4]; 45 min, mouse 2",2
same,stereotyped behaviour score,"albino mice [4]; 135 min, mouse 3",0
same,stereotyped behaviour score,"albino mice [4]; 135 min, mouse 4",0
same,MNTC,[5],50 µg/mL
"c1ccc(CN2CCN(NC3C4CC5CC(C4)CC3C5)CC2)cc1 (stereo not shown) [Example 16, 1-(2'-Adamantylamino)-4-benzylpiperazine dihydrochloridemonohydrate]",IC50,[1],5 to 30 µg/mL
same,Leishmania promastigote activity score,L. tropica promastigotes; 10 μg,+++ (No viable parasites after 24 hours)
same,Leishmania promastigote activity score,L. tropica promastigotes; 100 μg,+++ (No viable parasites after 24 hours)
same,activity against Leishmania,Leishmania,active
"CN(N)C1C2CC3CC(C2)CC1C3 (stereo not shown) [Example 27, 1-(2'-Adamantyl)-1-methylhydrazine hydrochloride]",MIC,[2]; Korthof + 8% serum,50 µg/mL
same,MIC,[2]; minimal + Pentex (0.5% albumin),6.25 µg/mL
same,MIC,[2]; minimal medium,3.12 µg/mL
same,anti leptospiral activity,[2],active
same,Leishmania amastigote activity score,L. tropica amastigotes; 10 μg,± (Partial clearance of parasites in 72 hours or more)
same,Leishmania amastigote activity score,L. tropica amastigotes; 100 μg,++ (clearance of all parasites in 48 hours)
same,Leishmania promastigote activity score,L. tropica promastigotes; 100 μg,+++ (No viable parasites after 24 hours)
same,activity against Leishmania,Leishmania,active
same,anticataleptic effect,"albino rats; 80 mg/kg i.p., rat 1",3/4
same,anticataleptic effect,"albino rats; 80 mg/kg i.p., rat 2",1/4
same,anticataleptic effect,"albino rats; 80 mg/kg i.p., rat 3",2/4
same,anticataleptic effect,"albino rats; 80 mg/kg i.p., rat 4",3/4
same,anticataleptic effect,"albino rats; 80 mg/kg i.p., rat 5",4/4
same,antiparkinson activity,albino rats,active
same,stereotyped behaviour score,"albino mice [3]; 0 min, mouse 1",0
same,stereotyped behaviour score,"albino mice [3]; 0 min, mouse 2",0
same,stereotyped behaviour score,"albino mice [3]; 0 min, mouse 3",0
same,stereotyped behaviour score,"albino mice [3]; 0 min, mouse 4",0
same,stereotyped behaviour score,"albino mice [3]; 30 min, mouse 1",0
same,stereotyped behaviour score,"albino mice [3]; 30 min, mouse 2",0
same,stereotyped behaviour score,"albino mice [3]; 30 min, mouse 3",1
same,stereotyped behaviour score,"albino mice [3]; 30 min, mouse 4",0
same,stereotyped behaviour score,"albino mice [3]; 45 min, mouse 3",1
same,stereotyped behaviour score,"albino mice [3]; 45 min, mouse 4",1
same,stereotyped behaviour score,"albino mice [3]; 60 min, mouse 1",2
same,stereotyped behaviour score,"albino mice [3]; 60 min, mouse 2",2
same,stereotyped behaviour score,"albino mice [3]; 60 min, mouse 3",2
same,stereotyped behaviour score,"albino mice [3]; 60 min, mouse 4",2
same,stereotyped behaviour score,"albino mice [3]; 90 min, mouse 1",2
same,stereotyped behaviour score,"albino mice [3]; 90 min, mouse 2",2
same,stereotyped behaviour score,"albino mice [3]; 90 min, mouse 3",2
same,stereotyped behaviour score,"albino mice [3]; 90 min, mouse 4",2
same,stereotyped behaviour score,"albino mice [3]; 120 min, mouse 1",1
same,stereotyped behaviour score,"albino mice [3]; 120 min, mouse 2",1
same,stereotyped behaviour score,"albino mice [3]; 120 min, mouse 3",0
same,stereotyped behaviour score,"albino mice [3]; 120 min, mouse 4",0
same,stereotyped behaviour score,"albino mice [3]; 135 min, mouse 1",1
same,stereotyped behaviour score,"albino mice [3]; 135 min, mouse 2",1
same,stereotyped behaviour score,"albino mice [3]; 150 min, mouse 1",1
same,stereotyped behaviour score,"albino mice [3]; 150 min, mouse 2",1
same,stereotyped behaviour score,"albino mice [3]; 150 min, mouse 3",0
same,stereotyped behaviour score,"albino mice [3]; 150 min, mouse 4",0
same,stereotyped behaviour score,"albino mice [3]; 180 min, mouse 1",0
same,stereotyped behaviour score,"albino mice [3]; 180 min, mouse 2",0
same,stereotyped behaviour score,"albino mice [3]; 180 min, mouse 3",0
same,stereotyped behaviour score,"albino mice [3]; 180 min, mouse 4",0
same,stereotyped behaviour score,"albino mice [3]; 210 min, mouse 1",0
same,stereotyped behaviour score,"albino mice [3]; 210 min, mouse 2",1
same,stereotyped behaviour score,"albino mice [3]; 210 min, mouse 3",0
same,stereotyped behaviour score,"albino mice [3]; 210 min, mouse 4",0
same,stereotyped behaviour score,"albino mice [3]; 240 min, mouse 1",0
same,stereotyped behaviour score,"albino mice [3]; 240 min, mouse 2",0
same,stereotyped behaviour score,"albino mice [3]; 240 min, mouse 3",0
same,stereotyped behaviour score,"albino mice [3]; 240 min, mouse 4",0
same,Mean Score,albino mice [3],6.5
same,Total Score,albino mice [3]; mouse 1,7
same,Total Score,albino mice [3]; mouse 2,9
same,Total Score,albino mice [3]; mouse 3,6
same,Total Score,albino mice [3]; mouse 4,5
same,stereotyped behaviour activity,albino mice [3],active
same,inhibition at 25 µg/mL,HSV-1 (Herpes Simplex),46%
same,inhibition at 50 µg/mL,HSV-1 (Herpes Simplex),81%
same,inhibition at 100 µg/mL,HSV-1 (Herpes Simplex),100%
same,stereotyped behaviour score,"albino mice [4]; 45 min, mouse 1",0
same,stereotyped behaviour score,"albino mice [4]; 45 min, mouse 2",1
same,stereotyped behaviour score,"albino mice [4]; 135 min, mouse 3",0
same,stereotyped behaviour score,"albino mice [4]; 135 min, mouse 4",0
same,MNTC,[5],100 µg/mL
"O=C(O)CNNC1C2CC3CC(C2)CC1C3 (stereo not shown) [Example 36, [2-(2'-adamantyl)hydrazino]acetic acid hydrochloride]",Leishmania amastigote activity score,L. tropica amastigotes; 100 μg,++ (clearance of all parasites in 48 hours)
same,Leishmania promastigote activity score,L. tropica promastigotes; 100 μg,++ (No viable parasites after 48 hours)
same,activity against Leishmania,Leishmania,active
same,anticataleptic effect,"albino rats; 80 mg/kg i.p., rat 1",2/4
same,anticataleptic effect,"albino rats; 80 mg/kg i.p., rat 2",1/4
same,anticataleptic effect,"albino rats; 80 mg/kg i.p., rat 3",3/4
same,anticataleptic effect,"albino rats; 80 mg/kg i.p., rat 4",2/4
same,anticataleptic effect,"albino rats; 80 mg/kg i.p., rat 5",0/4
same,antiparkinson activity,albino rats,active
same,inhibition at 50 µg/mL,HSV-1 (Herpes Simplex),0%
same,inhibition at 100 µg/mL,HSV-1 (Herpes Simplex),0%
same,inhibition at 200 µg/mL,HSV-1 (Herpes Simplex); 200 μg/ml,98%
same,MNTC,[5],200 µg/mL
